In patent US11479580B2, “Polypeptide expressed in the stratum corneum and use thereof” (CENTRE NATIONAL DE LA RECHERCHE SCIENTIFIQUE—CNRS, priority 2010, dated 2022):

Columns and labels:
[1] = test system: transglutaminases present in the granular layer of the human epidermis; assay: In situ binding assay of biotinylated polypeptides on cryosections of human abdominal skin; type: biochemical; details: 100 μM; for marking of the granular keratinocytes, negative control: 100 mM EDTA, absence of calcium; for marking of the contour of the granular keratinocytes (polypeptide bound to cornified envelopes): 5 mM CaCl2, 2 h at room temperature, confocal microscope
Protocol: To determine what region of the LCE6A protein is necessary for binding by the transglutaminases, the applicant arranged for the company MilleGen to synthesize various polypeptides, biotinylated at their N-terminal end, with a length of 9 to 13 amino acids, corresponding to different regions of the amino acid sequence of LCE6A.
These polypeptides were used in binding assays in situ. Cryosections of human abdominal skin, saturated by incubation in the presence of bovine albumin at 1% in PBS for 30 minutes at room temperature, were brought into contact with 100 mM Tris (pH 7.4) containing 100 μM of biotinylated polypeptide and 5 mM of CaCl2. After incubation for 2 h at room temperature, the reaction is stopped by adding EDTA at 25 mM for 5 minutes. The sections are then incubated in PBS containing 1% of SDS to destroy the noncovalent bonds.
The presence of biotinylated polypeptides bound to the cornified envelopes by the transglutaminases that are present and active in the tissue is detected by incubation of the sections with streptavidin-AlexaFluor555 at 5 μg/ml (Invitrogen) and visualization in the confocal microscope.
A positive control is performed in a similar experiment but by incubating the sections with 100 μM of cadaverine coupled to AlexaFluor555 (Invitrogen) instead of the polypeptides. For the negative controls, the cryosections are incubated with each biotinylated polypeptide or with cadaverine coupled to AlexaFluor555 but incubation is carried out in the presence of 100 mM of EDTA and in the absence of calcium.

[2] = test system: endogenous transglutaminase; assay: In vitro crosslinking binding assay with short peptide analogues of LCE6A fragments on human skin cryosections; type: biochemical; details: for labelling of the contour of the granular keratinocytes (peptide crosslinked to cornified envelopes) / labelling of the granular keratinocytes, negative control: 100 μM; for labelling of the contour of the granular keratinocytes (peptide crosslinked to cornified envelopes): 5 mM CaCl2, 2 h at room temperature, fluorescence microscope; for labelling of the granular keratinocytes, negative control: in the presence of EDTA, absence of calcium
Protocol: Protocol: The following short peptides derived from the amino acid sequences PEVQKP of LCE6A (amino-acids 49 to 54 of SEQ ID NO:2), which sequences meet the criteria defined above and are biotinylated at their amino-terminus, were synthesized: PGVQKP (SEQ ID NO: 7), PEGQKP (SEQ ID NO: 8), GEVQKP (SEQ ID No: 9), PEVQKG (SEQ ID No: 10).
These peptides were used at a concentration of 100 μM in in situ binding assays. Cryosections of human abdominal skin, saturated by incubation in the presence of bovine albumin at 1% in PBS for 30 minutes at room temperature, were brought into contact with 100 mM Tris (pH 7.4) containing 100 μM of biotinylated polypeptide and 5 mM of CaCl2). After incubation for 2 h at room temperature, the reaction was stopped by adding EDTA at 25 mM for 20 minutes. The sections were then incubated in PBS containing 1% of SDS to destroy the noncovalent bonds. The presence of biotinylated polypeptides bound to the cornified envelopes by the transglutaminases that are present and active in the tissue was detected by incubation of the sections with streptavidin-AlexaFluor555 at 5 μg/ml (Invitrogen) and visualization in the fluorescence microscope. A positive control was performed in a similar experiment but by incubating the sections with 100 μM of the peptide PEVQKP of LCE6A (amino-acids 49 to 54 of SEQ ID NO: 2). For the negative control, the cryosections were incubated with each biotinylated polypeptide but incubation was carried out in the presence of 100 mM of EDTA and in the absence of calcium.

Row | Substance | marking of the granular keratinocytes, negative control [1] | marking of the contour of the granular keratinocytes (polypeptide bound to cornified envelopes) [1] | other results
1 | PEVQKP (fragment) |  |  | labelling of the contour of the granular keratinocytes (peptide crosslinked to cornified envelopes) [2]: labelling of the contour of the granular keratinocytes; labelling of the granular keratinocytes, negative control [2]: Absence of labelling
2 | EVAKPRRARQALR (Mutated peptide of SEQ ID NO 5) [reference compound] |  | does not give any pericellular marking | 
3 | PEVQKG (Designed peptide based on homology to amino acid residue 49 to 54 from Protein LCE6A) |  |  | ability to bind cornified envelopes (conclusion) [2]: possesses the ability to bind cornified envelopes; labelling of the contour of the granular keratinocytes (peptide crosslinked to cornified envelopes) [2]: strong labelling of the contour of the granular keratinocytes; labelling of the granular keratinocytes, negative control [2]: Absence of labelling
4 | RPAPPPISGGGYRAR (Control peptide of SEQ ID NO 19) [reference compound] |  | does not give any pericellular marking | 
5 | MSQAKQQSW (Mutated peptide of SEQ ID NO 3) [reference compound] |  | does not give any pericellular marking | 

More lines, main results first:

Row | marking of the granular keratinocytes, negative control [1] | Substance | marking of the contour of the granular keratinocytes (polypeptide bound to cornified envelopes) [1] | other results
6 | no marking is obtained | SEQ ID NO: 5: polypeptide fragment of LCE6A, 9 to 13 amino acids, sequence not printed in the text (EVQKPRRARQKLR; Designed peptide based on homology to amino acid residue 50 to 62 from Protein LCE6A) |  | 
7 | no marking is obtained | SEQ ID NO: 3: polypeptide fragment of LCE6A, 9 to 13 amino acids, sequence not printed in the text (MSQQKQQSW; Designed peptide based on homology to amino acid residue 1 to 9 from Protein LCE6A) |  | 
8 | no marking is obtained | SEQ ID NO: 4: polypeptide fragment of LCE6A, 9 to 13 amino acids, sequence not printed in the text (SSQRPEVQKPR; Designed peptide based on homology to amino acid residue 45 to 55 from Protein LCE6A) |  | 
